± gives the expanded uncertainty stated by the source.

The conditions of this data set: Liquid, Closed cell (Static) method.

In the case of `CCO` [ethanol], the vapor or sublimation pressure (as a rule, the equilibrium pressure above the liquid or solid) (303.15 K) turned out to be 10.42 ± 0.38 kPa; the “vapor or sublimation pressure” value (318.15 K) worked out at 23.02 ± 0.46 kPa; the “vapor or sublimation pressure” value (333.15 K) is given as 46.63 ± 0.58 kPa.

For the molecule `CC1CO1` (centres undefined) [methyloxirane], the “vapor or sublimation pressure” value runs as follows: (303.15 K) 86.9 ± 1.2 kPa; (318.15 K) 147.85 ± 1.9 kPa; (333.15 K) 237.88 ± 2.8 kPa.

Consider `CCCO` [propan-1-ol], for which the “vapor or sublimation pressure” value runs as follows: (303.15 K) 3.63 ± 0.31 kPa; (318.15 K) 9.01 ± 0.34 kPa; (333.15 K) 19.93 ± 0.39 kPa.

These data come from the NIST ThermoML archive (doi:10.1016/j.jct.2015.02.006).
